The nature of data set [1]: Protonation constants by potentiometric titration. The data set is classed as physicochemical. The following applies: I=0.1 M KCl, 25° C.
Experimental: Potentiometric Titrations. Stability constant measurements were carried out by titrating an aqueous solution (˜15 mL) of ligand (˜1 mM), metal (˜1 mM), and HCl (˜10 mM) with standardized KOH (0.1 M). The ionic strength of the solution was maintained at 0.1 M using KCl. The titration method employed a 0.1 mV/min drift limit with a minimum and maximum wait time of 0 s and 300 s respectively between addition of KOH aliquots (0.015 mL volume increments). […] The titration data within the pH range of 2.2-11.3 were analyzed using Hyperquad2013 software. The stability constants were calculated from the average of three independent titrations (using three independently prepared ligand stock solutions from three independent synthetic preparations of ligands).
Data set [2] in a line: Thermodynamic stability constants of barium complexes by potentiometric titration. Conditions: for pBa (−log [M]free): [M]tot = 10^−6 M, [L]tot = 10^−5 M; for pBa (−log [M]free) / log KBa′ (conditional stability constant): pH 7.4, 25° C., I = 0.1M KCl.
Experimental: Thermodynamic stability studies.
(§1) Potentiometric Titrations. Stability constant measurements were carried out by titrating an aqueous solution (˜15 mL) of ligand (˜1 mM), metal (˜1 mM), and HCl (˜10 mM) with standardized KOH (0.1 M). The ionic strength of the solution was maintained at 0.1 M using KCl. The titration method employed a 0.1 mV/min drift limit with a minimum and maximum wait time of 0 s and 300 s respectively between addition of KOH aliquots (0.015 mL volume increments). No metal hydroxide precipitation was observed within the pH range and concentration employed. […] The stability constants were calculated from the average of three independent titrations (using three independently prepared ligand stock solutions from three independent synthetic preparations of ligands).
Data set [3] can be described thus: Thermodynamic stability constants of lanthanum complexes by potentiometric titration. Conditions: for pLa (−log [M]free): [M]tot = 10^−6 M, [L]tot = 10^−5 M; for pLa (−log [M]free) / log KLa′ (conditional stability constant): pH 7.4, 25° C., I = 0.1M KCl; for ranking of log KLaL of lanthanum-ligand complexes: equimolar La^3+; for ranking of log KLaL of lanthanum-ligand complexes / stability of complexes with La^3+ (in words): potentiometric titration.
Experimental: Thermodynamic stability studies.
as §1

The conditions of data set [4]: pH 7.4.
Experimental: Thermodynamic stability studies.
as §1
The conditions of data set [5]: pH 7.4. This is another data set of the same source.
Experimental: Thermodynamic stability studies.
as §1
The format of data set [6] is physicochemical. The procedure:
H2BZmacropa-NCS Hydrolysis. The stability of BZmacropa-NCS^2— towards hydrolysis was tested as the followings. A solution (1 mL) of H2BZmacropa-NCS (≈1.5 mM) was prepared in 0.1 M Na2CO3/NaHCO3pH 9.1 buffer and stored at room temperature (≈23±1° C.) in a vial covered with aluminum foil. This solution was analyzed periodically by analytical HPLC (method quick-MeCN, 5 μL aliquots) for over a week.

Data set [7] addresses T1, human GPC3 protein (Homo sapiens, UniProt P51654).
T1 construct: biotin (biotinylated); purchased Acro Biosystems, Newark, DE
Kind of data set: Binding affinity by bio-layer interferometry (BLI). Conditions: immobilized biotinylated human GPC3, antibody 0-25 nM, global fit. Background: In BLI a coated tip is dipped into the sample, and binding shifts an interference pattern.
Experimental: Biotinylated human GPC3 protein (Acro Biosystems, Newark, DE) was diluted to 1 μg/mL in assay buffer: 1×PBS with 0.02% Tween-20 and 0.1% acetylated BSA (Electron Microscopy Sciences, Hatfield, PA) in a 96-well plate and loaded onto streptavidin biosensors (ForteBio, Menlo Park, CA). Antibodies were diluted in assay buffer at 4 concentrations from 0-25 nM and loaded into a 96-well plate (final volume of 200 μL). GPC3 was loaded to a density of 0.3 to avoid avidity affects. Reference wells containing buffer only, GPC3-only and antibody only were used as blanks. Plates were run on an Octet Red96 system (FortéBio, Menlo Park, CA) and analyzed with ForteBio Octet Data Analysis software (v.11). […] The combined association and dissociation kinetic data across all concentrations were fit using the global fitting model in the Octet Analysis Studio software.

Data set [8] is classed as in vivo, mice. The procedure:
Biodistribution. […] At 48 and 96 h post-injection, mice (n=3-4 per time point) were euthanized. Their organs were harvested and weighed, then counted on a gamma counter after allowing 24 h for ^225Ac daughters to equilibrate. The activity in each organ was decay-corrected using a standard of known activity prepared at the same time as the injections. Radiotracer uptake in each organ was calculated by dividing the % injected activity (% IA) in each organ by the organ's weight. Measurement errors are reported as the standard deviation of the % IA/g values (FIGS. 2A-2B).

Read-outs that look alike come from different tables or passages of the source.

Usually Kd stands for the concentration at which binding is half-saturated. Low values mean tighter binding, high ones weaker binding.

On to `O=C(O)CN1CCN(CC(=O)O)CCN(CC(=O)O)CCN(CC(=O)O)CC1` [DOTA], for which, in data set [1], the “log K1 (protonation constant)” value is 11.14, the “log K2 (protonation constant)” value was determined as 9.69, the “log K3 (protonation constant)” value was found to be 4.85 and the “log K4 (protonation constant)” value is listed as 3.95. In data set [2] (I=0.1 M KCl, 25° C.), the “log KBaL” value came out at 11.75. Besides, in data set [2], the “pBa (−log [M]free)” value came out at 6.76 and the “log KBa′ (conditional stability constant)” value (from here on “log KBa′”) came to 5.72. Further, the “log KLaL” value in data set [3] (I=0.1 M KCl, 25° C.) stood at 21.7. In addition, in data set [3], the “pLa (−log [M]free)” value is given as 16.62 and the “log KLa′ (conditional stability constant)” value (shortened to “log KLa′”) is recorded as 15.67.

For the molecule `O=C(O)CN(CCN(CC(=O)O)CC(=O)O)CCN(CC(=O)O)CC(=O)O` [DTPA], in data set [1], the “log K1 (protonation constant)” value was 10.34, the “log K2 (protonation constant)” value was 8.59, the “log K3 (protonation constant)” value was 4.25 and the “log K4 (protonation constant)” value amounted to 2.71. In addition, the “log K5 (protonation constant)” value in data set [1] is on record as 2.18. In addition, the “log KBa′” value in data set [4] is recorded as 4.63. The “log KLa′” value in data set [5] is 15.32. In addition, in data set [2] (I=0.1 M KCl, 25° C.), the “log KBaHL” value came out at 5.34 and the “log KBaL” value amounted to 8.78. Further, the “pBa (−log [M]free)” value in data set [2] is listed as 6.15. For the same molecule, the “log KLaL” value in data set [3] (I=0.1 M KCl, 25° C.) is reported as 19.48. Moreover, the “pLa (−log [M]free)” value in data set [3] worked out at 16.28.

For the molecule `O=C(O)CN(CCN(CC(=O)O)CC(=O)O)CC(=O)O` [EDTA], in data set [1], the “log K1 (protonation constant)” value amounted to 10.19, the “log K2 (protonation constant)” value was found to be 6.13, the “log K3 (protonation constant)” value came out at 2.69 and the “log K4 (protonation constant)” value was determined as 2.00. Besides, the “log KBaL” value in data set [2] (I=0.1 M KCl, 25° C.) was found to be 7.80. In data set [2], the “pBa (−log [M]free)” value is recorded as 6.28 and the “log KBa′” value turned out to be 4.99. In data set [3] (I=0.1 M KCl, 25° C.), the “log KLaL” value is recorded as 15.46. In data set [3], the “pLa (−log [M]free)” value is reported as 13.60 and the “log KLa′” value is given as 12.65.

Turning to `O=C(O)c1cccc(CN2CCOc3ccccc3OCCN(Cc3cccc(C(=O)O)n3)CCOc3ccccc3OCC2)n1` [H2BZ2macropa, 6,6′-((6,7,9,10,17,18,20,21-octahydro-8H,19H-dibenzo[b,k][1,4,10,13]tetraoxa[7,16]diazacyclooctadecine-8,19-diyl)bis(methylene))dipicolinic acid], in data set [3], the “ranking of log KLaL of lanthanum-ligand complexes” value is “H2macropa>H2BZmacropa>H2BZ2macropa” and the “stability of complexes with La^3+ (in words)” value was “form highly stable complexes with La^3+”.

With `O=C(O)c1cccc(CN2CCOCCOCCN(Cc3cccc(C(=O)O)n3)CCOc3ccccc3OCC2)n1` [H2BZmacropa, 6,6′-((2,3,5,6,8,9,11,12,14,15-decahydro-4H,13H-benzo[b][1,4,10,13]tetraoxa[7,16]diazacyclooctadecine-4,13-diyl)bis(methylene))dipicolinic acid], in data set [1], the “log K1 (protonation constant)” value came to 7.06, the “log K2 (protonation constant)” value turned out to be 6.41, the “log K3 (protonation constant)” value stood at 3.33 and the “log K4 (protonation constant)” value was determined as 2.49. Moreover, in data set [2] (I=0.1 M KCl, 25° C.), the “log KBaHL” value was found to be 3.56 and the “log KBaL” value is 9.09. Also, in data set [2], the “pBa (−log [M]free)” value came to 9.87 and the “log KBa′” value worked out at 8.91. Besides, the “log KLaL” value in data set [3] (I=0.1 M KCl, 25° C.) is reported as 13.98. Moreover, in data set [3], the “ranking of log KLaL of lanthanum-ligand complexes” value is given as “H2macropa>H2BZmacropa>H2BZ2macropa” and the “stability of complexes with La^3+ (in words)” value was “form highly stable complexes with La^3+”.

Take `O=C(O)c1cccc(CN2CCOCCOCCN(Cc3cc(N=C=S)cc(C(=O)O)n3)CCOCCOCC2)n1` [H2macropa-NCS]: the “time for complete hydrolysis” value in data set [6] (0.1 M Na2CO3/NaHCO3 pH 9.1 buffer, room temperature) is given as “more than a week's time”. The “half-life of hydrolysis of the thiocyanate functional group” value in data set [6] (buffer, pH 9.1) was found to be 56 h.

For `O=C(O)c1cccc(CN2CCOCCOCCN(Cc3cccc(C(=O)O)n3)CCOCCOCC2)n1` [H2macropa], in data set [1], the “log K1 (protonation constant)” value amounted to 7.41, the “log K2 (protonation constant)” value turned out to be 6.90, the “log K3 (protonation constant)” value is recorded as 3.23 and the “log K4 (protonation constant)” value is given as 2.45. In addition, in data set [2] (I=0.1 M KCl, 25° C.), the “log KBaH2L” value was 2.49, the “log KBaHL” value was 3.76 and the “log KBaL” value was 11.11. In data set [2], the “pBa (−log [M]free)” value amounted to 11.69 and the “log KBa′” value amounted to 10.74. Besides, in data set [3] (I=0.1 M KCl, 25° C.), the “log KLaHL” value was 2.28 and the “log KLaL” value was found to be 14.99. Besides, in data set [3], the “pLa (−log [M]free)” value turned out to be 15.58, the “ranking of log KLaL of lanthanum-ligand complexes” value is on record as “H2macropa>H2BZmacropa>H2BZ2macropa” and the “log KLa′” value stood at 14.63.

With GC33-BZM: "GC33-BZmacropa conjugate", in data set [7], the Kd was 0.19 nM.

For the molecule “^225Ac[Ac]-GC33-BZM: "The radioconjugate ^225Ac[Ac]-GC33-BZM"”, the “tumor targeting compared with ^225Ac[Ac]-GC33-M” value in data set [8] (mice, intravenous 100 nCi, 48 and 96 h) is reported as “no significant difference”. For the same molecule, the tumor uptake entry in data set [8] (mice, intravenous 100 nCi, 48 and 96 h post-injection) was “clear, specific tumor uptake at both 48 and 96 h post-injection, with tumor signal greater than that of all organs at both time points”. Besides, in data set [8] (mouse, in vivo), the “off-target accumulation in liver and femur compared with ^225Ac[Ac]-GC33-M” value is “higher than that of ^225Ac[Ac]-GC33-M in both the liver and femur at 48 h”.

For the origin of these results see US20240261444A1, “RIGIDIFIED MACROCYCLES, COMPLEXES WITH RADIONUCLIDES, AND USE IN TARGETED RADIOTHERAPY OF CANCER” (Cornell University, priority 2021, published 2024).
